Test results published in US8124655B2, “Use of LR-90 and LR-102 to overcome insulin resistance” (City of Hope, priority 2007, dated 2012).

What was measured:
CML-AGE, AGER = assay: Plasma and renal AGE and AGER; type: in vivo, rat; details: ZDF rats
Experimental: All animal studies were carried out in compliance with policies outlined in The Guide for the Care and Handling of Laboratory Animals (NIH Publication No. 85-23) that have been approved by the City of Hope Animal Care Committee. Male ZDF (fa/fa) and male Zucker lean (+/+; ZL) rats were obtained at the age of 5 weeks from Charles River Laboratories (Wilmington, Mass., USA). Animals were maintained with free access to Purina 5008 rat chow (Purina Mills, St Louis, Mo., USA) and tap water. All animals were individually housed in a controlled room with a 12 h dark-light cycle. At the age of 13 weeks, the animals were divided into the following groups: (1) ZL rats (n=6); (2) ZDF rats without treatment (n=6); and (3) ZDF rats treated with LR-90 at 50 mg/l in their drinking water (ZDF90, n=6). The dose of LR-90 was chosen after previous experiments with type 1 diabetic nephropathy. Food, water intake, body weight and blood glucose levels were monitored periodically. Systolic blood pressure was measured by tail-cuff plethysmography (CODA2 Blood Pressure System; Kent Scientific, Torrington, Conn., USA). […] Plasma glucose, lipids and Nε-(carboxymethyl)lysine-AGE Plasma glucose was measured using a glucose analyzer (2300 STAT; YSI, Yellowsprings, Ohio, USA). Total plasma triacylglycerol and cholesterol concentrations were quantified using the Vitros 250 Chemistry System (Johnson & Johnson, Rochester, N.Y., USA). Nε-(Carboxymethyl)lysine (CML)-AGE was liberated from plasma proteins by acid hydrolysis and then measured by ion-pair reversed-phase liquid chromatography/tandem mass spectrometry as described previously. […]
Renal cortical tissues were homogenised in PBS buffer with 1% (vol./vol.) Nonidet P-40, 0.5% (wt/vol.) sodium deoxycholate, 0.1% (wt/vol.) SDS and protease inhibitor mixture (Roche, Indianapolis, Ind., USA). […] Protein concentrations were measured using the Bio-Rad DC Assay kit. […] Immunoreactive proteins were detected by enhanced chemiluminescence (Western Lightning Chemiluminescence Reagent; Perkin-Elmer, Waltham, Mass., USA) using horseradish peroxidase-labelled secondary antibodies. […]

[1] = test system: experimental type 1 diabetic nephropathy; details: previous studies (24); cited from earlier work
[2] = test system: Zucker diabetic fatty rats (ZDF, fa/fa); assay: Pancreatic islet immunohistochemistry and PAMS staining (Example 2); type: in vivo, rat
Text: FIG. 7. Immunohistochemical analysis and quantification of islet cells. ZDF GM fa/fa rats and lean control rats were fed with high fat diet for 30 weeks and received either nothing or LR-90 or LR-102 in their drinking water. Pancreatic sections from various groups of animals were stained with anti-insulin antibody or anti-glucagon antibody. A. Representative images with the overlay of the insulin (green) and glucagon (red staining). […] B. Insulin-positive β-cell-to-glucagon-ratio was also measured from these images.
FIG. 8. Periodic acid methenamine silver (PAMS) staining of pancreatic tissues. Sections from cryopreserved pancreas of each group of animals on the study were stained with PAMS and examined under light microscopy.
(§1) LR-90 at 50 mg/L of drinking water was given to a subgroup of ZDF rats after the rats developed spontaneous diabetes at 13 weeks of age. At 40 weeks of age, and before killing the animals, their weight was measured; HbA1c, plasma glucose, insulin, triglycerides, cholesterol, CRP and urinary albumin and creatinine concentrations were measured. After euthanizing all animals, organs such as the kidneys, eyeballs, liver, heart, aortae and pancreas were dissected and subjected to immunohistochemical staining, RT-PCR, Western blotting and microscopy.

[3] = test system: Cybb, the gene encoding for the gp91phox subunit of NADPH; assay: Kidney expression of Cybb (data not shown); type: in vivo, rat; details: ZDF rats
[4] = test system: Zucker diabetic fatty rats (ZDF, fa/fa); assay: Metabolic data of ZDF rats treated with LR-90 or LR-102 (Example 2); type: in vivo, rat
Experimental: as §1, with “The present Example presents the results of an investigation of the effects of LR-90, an inhibitor of AGE/ALE formation, in male Zucker diabetic fatty rats (ZDF, fa/fa) fed with Purina 5008 diet until 40 weeks of age, and their hetorozygous lean littermates (ZDF fa/+) as non-hyperglycemic controls. LR-90” for “LR-90”

[5] = ZDF rats at 40 weeks of age, Mean ± SEM

## CC(C)(Oc1ccc(NC(=O)Nc2ccc(Cc3ccc(NC(=O)Nc4ccc(OC(C)(C)C(=O)O)cc4)c(Cl)c3)cc2Cl)cc1)C(=O)O [LR-90, methylene bis[4,4′-(2-chlorophenylureidophenoxyisobutyric acid)]]
CML-AGE, AGER; RT-PCR and immunostaining
  Ager mRNA and protein in kidney tissues: markedly abrogated
CML-AGE, AGER; immunohistochemistry
  AGE accumulation in kidney tissues: markedly abrogated
CML-AGE, AGER; p<0.01, LC/tandem MS
  attenuation of circulating plasma CML-AGE concentration: 22%
[1]
  development of experimental type 1 diabetic nephropathy: prevented
[2]; FIG. 8
  PAMS staining of pancreatic islets: amelioration
[2]; FIGS. 7 and 8
  number of undamaged insulin-secreting islet cells in the pancreas: significantly higher number
[3]
  increased kidney expression of Cybb: attenuated
[4]; ZDF rats at 40 weeks of age, drug in drinking water, Mean ± SEM
  Plasma glucose: 25 ± 2.3 mM
[4]; [5]
  Cholesterol: 244 ± 13 mg/dL
  HbA1c: 2.89 ± 0.07%
  Plasma CRP: 0.58 ± 0.09 mg/mL
  Plasma insulin, ELISA: 0.64 ± 0.10 ng/mL
  Plasma insulin, RIA: 0.63 ± 0.04 ng/mL
  Triglycerides: 384 ± 51 mg/dL
  Urinary Albumin: 27.8 ± 4.8 mg/24 h
[4]; ZDF rats, Example 2
  effect on hyperglycemia: no effect
  effect on hyperlipidemia: significantly reduced
  increase in CRP levels: attenuated
